Laboratory results from US7713937B2, “Synthetic peptide amides and dimeric forms thereof” (Cara Therapeutics, Inc., priority 2006, dated 2010).
pEC50: −log10 of the molar value. Square brackets hold non-standard residues; d marks the D form. Side chains are listed from the residue outwards. Peptide text beside a SMILES is read from it. dOrn = NCCC[C@@H](N)C(=O)O

Legend:
[1] = biological target: T1, mouse kappa opioid receptor (mKOR) (Mus musculus, UniProt P33534); test: cell-based; conditions: for Emax: read-out: mKOR Efficacy(%)
T1 construct: Stimulation of Endogenous Mouse Kappa-Opioid Receptor in R1.G1 Cells; host or cells: R1.G1 mouse thymoma cells
T1 sequence (P33534 whole entry): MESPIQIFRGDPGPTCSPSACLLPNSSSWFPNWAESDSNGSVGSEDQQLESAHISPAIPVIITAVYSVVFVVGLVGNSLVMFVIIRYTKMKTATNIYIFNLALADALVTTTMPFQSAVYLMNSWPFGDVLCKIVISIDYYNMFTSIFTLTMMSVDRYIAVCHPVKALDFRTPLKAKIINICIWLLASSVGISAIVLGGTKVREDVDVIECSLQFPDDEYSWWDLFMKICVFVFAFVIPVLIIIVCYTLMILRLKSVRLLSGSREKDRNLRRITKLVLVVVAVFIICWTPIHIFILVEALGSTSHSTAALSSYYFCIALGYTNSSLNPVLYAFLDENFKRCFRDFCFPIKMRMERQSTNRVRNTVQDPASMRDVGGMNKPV

[2] = biological target: T2, human kappa opioid receptor (hKOR) (Homo sapiens, UniProt P41145); test: cell-based; conditions: for Emax: HEK293, read-out: hKOR Efficacy(%)
T2 construct: expressed in transfected cells; host or cells: HEK-293 cells, transient transfection with Fugene6
T2 sequence (P41145 whole entry): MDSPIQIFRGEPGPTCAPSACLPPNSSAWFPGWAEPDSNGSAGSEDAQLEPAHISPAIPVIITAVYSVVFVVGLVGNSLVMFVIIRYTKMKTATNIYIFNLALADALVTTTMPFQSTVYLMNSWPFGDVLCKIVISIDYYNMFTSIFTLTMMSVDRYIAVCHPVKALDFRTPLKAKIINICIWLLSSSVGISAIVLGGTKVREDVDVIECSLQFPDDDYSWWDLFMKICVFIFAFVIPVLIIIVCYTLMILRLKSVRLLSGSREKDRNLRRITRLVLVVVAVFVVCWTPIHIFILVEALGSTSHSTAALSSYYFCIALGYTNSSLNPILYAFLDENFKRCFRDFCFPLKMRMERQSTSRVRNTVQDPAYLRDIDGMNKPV

Row | SMILES | pEC50 [1] | Emax [1] | pEC50 [2] | Emax [2]
1 | CC(C)C[C@@H](NC(=O)[C@@H](Cc1ccccc1)NC(=O)[C@H](N)Cc1ccccc1)C(=O)N[C@H](CCCN)C(=O)N1CCC(N2CCC[C@H]2C(N)=O)CC1 [Compound (50), D-Phe-D-Phe-D-Leu-D-Orn-[N-(4-piperidinyl)-L-proline]-NH2] | 10.66 | 96% | 9.72 | 
2 | CCN1CCCN(C(=O)[C@@H](CCCN)NC(=O)[C@@H](CC(C)C)NC(=O)[C@@H](Cc2ccccc2)NC(=O)[C@H](N)Cc2ccccc2)CC1 [Compound (55), D-Phe-D-Phe-D-Leu-D-Orn-[4-ethylhomopiperazine amide]] | 10.31 | 99% | 9.85 | 93%
3 | CC(C)C[C@@H](NC(=O)[C@@H](Cc1ccccc1)NC(=O)[C@H](N)Cc1ccccc1)C(=O)N[C@H](CCCN)C(=O)N1CCCNCC1 [Compound (56), D-Phe-D-Phe-D-Leu-D-Orn-[homopiperazine amide]] | 10.10 | 100% | 9.66 | 
4 | CNCCC[C@@H](NC(=O)[C@@H](CC(C)C)NC(=O)[C@@H](Cc1ccccc1)NC(=O)[C@H](N)Cc1ccccc1)C(=O)N1CCCN(C(=N)N)CC1 [Compound (57), D-Phe-D-Phe-D-Leu-(δ-Me)D-Orn-[4-amidinohomopiperazine amide]] | 10.11 | 97% | 10.05 | 101%
5 | CC(C)C[C@@H](NC(=O)[C@@H](Cc1ccccc1)NC(=O)[C@H](N)Cc1ccccc1)C(=O)N[C@H](CCCNC(C)C)C(=O)N1CCC(N)(C(=O)O)CC1 [Compound (58), D-Phe-D-Phe-D-Leu-(δ-iPr)D-Orn-[ω(4-aminopiperidine-4-carboxylic acid)]-OH] | 9.71 | 92% | 9.92 | 
6 | CC(C)C[C@@H](NC(=O)[C@@H](Cc1ccccc1)NC(=O)[C@H](N)Cc1ccccc1)C(=O)N[C@H](CCCNC(C)C)C(=O)N1CCCN(C(=N)N)CC1 [Compound (59), D-Phe-D-Phe-D-Leu-(δ-iPr)D-Orn-[4-amidinohomopiperazine amide]] | 10.09 | 97% | 10.10 | 100%
7 | CNCCC[C@@H](NC(=O)[C@@H](CC(C)C)NC(=O)[C@@H](Cc1ccccc1)NC(=O)[C@H](N)Cc1ccccc1)C(=O)N1CCCNCC1 [Compound (60), D-Phe-D-Phe-D-Leu-(δ-Me)D-Orn-[homopiperazine amide]] | 10.35 | 95% | 10.05 | 106%
8 | CC(C)C[C@@H](NC(=O)[C@@H](Cc1ccccc1)NC(=O)[C@H](N)Cc1ccccc1)C(=O)N[C@H](CCCNC(C)C)C(=O)N1CCCNCC1 [Compound (61), D-Phe-D-Phe-D-Leu-(δ-iPr)D-Orn-[homopiperazine amide]] | 10.48 | 96% | 10.15 | 98%
9 | CC(C)C[C@@H](NC(=O)[C@@H](Cc1ccccc1)NC(=O)[C@H](N)Cc1ccccc1)C(=O)N[C@H](CCCCN)C(=O)NCC1OCCO1 [Compound (62)] | 9.83 | 85% | 10.68 | 98%
10 | CC(C)C[C@@H](NC(=O)[C@@H](Cc1ccccc1)NC(=O)[C@H](N)Cc1ccccc1)C(=O)N[C@H](CCCCN)C(=O)N1CCN(c2ncccn2)CC1 [Compound (63), D-Phe-D-Phe-D-Leu-D-Lys-[2-(piperazin-1-yl)pyrimidine amide]] | 9.92 | 78% | 11.14 | 98%
11 | CC(C)C[C@@H](NC(=O)[C@@H](Cc1ccccc1)NC(=O)[C@H](N)Cc1ccccc1)C(=O)N[C@H](CCCCN)C(=O)N1CCN(c2cnccn2)CC1 [Compound (64), D-Phe-D-Phe-D-Leu-D-Lys-[2-(piperazin-1-yl)pyrazine amide]] |  | 85% | 10.53 | 100%
12 | CC(C)C[C@@H](NC(=O)[C@@H](Cc1ccccc1)NC(=O)[C@H](N)Cc1ccccc1)C(=O)N[C@H](CCCCN)C(=O)N1CCN(c2ccccn2)CC1 [Compound (65), D-Phe-D-Phe-D-Leu-D-Lys-[1-(pyridin-2-yl)piperazine amide]] | 10.33 | 89% | 11.23 | 100%
13 | CC(C)C[C@@H](NC(=O)[C@@H](Cc1ccccc1)NC(=O)[C@H](N)Cc1ccccc1)C(=O)N[C@H](CCCCN)C(=O)N1CCN(c2nccs2)CC1 [Compound (66), D-Phe-D-Phe-D-Leu-D-Lys-[2-(piperazin-1-yl)thiazole amide]] | 10.08 | 85% | 10.51 | 92%
14 | CC(C)C[C@@H](NC(=O)[C@@H](Cc1ccccc1)NC(=O)[C@H](N)Cc1ccccc1)C(=O)N[C@H](CCCCN)C(=O)N1CCN(S(=O)(=O)N(C)C)CC1 [Compound (67), D-Phe-D-Phe-D-Leu-D-Lys-[N,N-dimethylpiperazine-1-sulfonamide amide]] | 9.71 | 86% | 10.71 | 101%
15 | CC(C)C[C@@H](NC(=O)[C@@H](Cc1ccccc1)NC(=O)[C@H](N)Cc1ccccc1)C(=O)N[C@H](CCCCN)C(=O)N1CCN(S(C)(=O)=O)CC1 [Compound (68), D-Phe-D-Phe-D-Leu-D-Lys-[1-(methylsulfonyl)piperazine amide]] | 9.61 | 82% | 11.14 | 100%
16 | CC(C)C[C@@H](NC(=O)[C@@H](Cc1ccccc1)NC(=O)[C@H](N)Cc1ccccc1)C(=O)N[C@H](CCCCN)C(=O)N1CCN(S(=O)(=O)c2ccccc2)CC1 [Compound (69), D-Phe-D-Phe-D-Leu-D-Lys-[1-(phenylsulfonyl)piperazine amide]] | 9.28 | 87% | 10.96 | 101%
17 | CC(C)C[C@@H](NC(=O)[C@@H](Cc1ccccc1)NC(=O)[C@H](N)Cc1ccccc1)C(=O)N[C@H](CCCCN)C(=O)N1CCN(C(=O)c2ccccc2)CC1 [Compound (70), D-Phe-D-Phe-D-Leu-D-Lys-[phenyl(piperazin-1-yl)methanone amide]] | 9.46 | 92% | 10.92 | 94%
18 | CC(C)C[C@@H](NC(=O)[C@@H](Cc1ccccc1)NC(=O)[C@H](N)Cc1ccccc1)C(=O)N[C@H](CCCCN)C(=O)N1CCS(=O)(=O)CC1 [Compound (71), D-Phe-D-Phe-D-Leu-D-Lys-[thiolmorpholine-1,1-dioxide amide]] | 9.72 | 89% | 10.51 | 103%
19 | CC(C)C[C@@H](NC(=O)[C@@H](Cc1ccccc1)NC(=O)[C@H](N)Cc1ccccc1)C(=O)N[C@H](CCCCN)C(=O)NCc1ccc(C(F)(F)F)nc1 [Compound (72), D-Phe-D-Phe-D-Leu-D-Lys-[6-trifluoromethyl-3-aminomethylpyridine amide]] | 9.31 | 85% | 10.18 | 95%
20 | CC(C)C[C@@H](NC(=O)[C@@H](Cc1ccccc1)NC(=O)[C@H](N)Cc1ccccc1)C(=O)N[C@H](CCCCN)C(=O)NCC1CCOCC1 [Compound (73)] | 9.20 | 89% | 11.47 | 99%
21 | CC(C)C[C@@H](NC(=O)[C@@H](Cc1ccccc1)NC(=O)[C@H](N)Cc1ccccc1)C(=O)N[C@H](CCCCN)C(=O)NCc1ccc2[nH]c(=O)[nH]c2c1 [Compound (74), D-Phe-D-Phe-D-Leu-D-Lys-[5-(aminomethyl)-1H-benzo[d]imidazol-2(3H)-one amide]] | 10.14 | 87% | 11.20 | 99%
22 | CC(C)C[C@@H](N)C(=O)N[C@H](CCCN)C(=O)N[C@@H](CCCCNC(=O)[C@@H](CCCN)NC(=O)[C@@H](CC(C)C)NC(=O)[C@@H](Cc1ccccc1)NC(=O)[C@H](N)Cc1ccccc1)C(=O)O [Compound (76), D-Phe-D-Phe-D-Leu-D-Orn-[eLys(D-Orn-D-Leu-H)]-OH] | 8.97 | 96% | 9.59 | 83%
23 | CC(C)C[C@@H](NC(=O)[C@H](N)Cc1ccccc1)C(=O)N[C@H](CCCN)C(=O)N[C@@H](CCCCNC(=O)[C@@H](CCCN)NC(=O)[C@@H](CC(C)C)NC(=O)[C@@H](Cc1ccccc1)NC(=O)[C@H](N)Cc1ccccc1)C(=O)O [Compound (78)] | 9.62 |  |  | 95%
24 | CC(C)C[C@@H](NC(=O)[C@@H](Cc1ccccc1)NC(=O)[C@H](N)Cc1ccccc1)C(=O)N[C@H](CCCN)C(=O)NCCCC[C@H](NC(=O)[C@H](N)CCCN)C(=O)O [Compound (79)] | 10.10 | 101% | 9.89 | 
25 | CC(C)C[C@@H](NC(=O)[C@@H](Cc1ccccc1)NC(=O)[C@H](N)Cc1ccccc1)C(=O)N[C@H](CCCN)C(=O)NCCCC[C@H](NC(=O)[C@@H](CCCN)NC(=O)[C@@H](CC(C)C)NC(=O)[C@@H](Cc1ccccc1)NC(=O)[C@H](N)Cc1ccccc1)C(N)=O [Compound (80)] (H-[dF][dF][dL][dOrn]K([dOrn-dL-dF-dF])-NH2) | 8.89 | 91% | 9.60 | 
26 | CC(C)C[C@@H](NC(=O)[C@@H](Cc1ccccc1)NC(=O)[C@H](N)Cc1ccccc1)C(=O)N[C@H](CCCN)C(=O)NCCCC[C@H](NC(=O)[C@H](N)CCCN)C(=O)N1CCNCC1 [Compound (81)] | 10.30 | 96% | 9.55 | 96%
27 | CC(C)C[C@@H](NC(=O)[C@@H](Cc1ccccc1)NC(=O)[C@H](N)Cc1ccccc1)C(=O)N[C@H](CCCN)C(=O)N1CCOC(C(=O)O)C1 (stereo partly drawn) [Compound (90), D-Phe-D-Phe-D-Leu-D-Orn-[R/S-2-carboxymorpholine]-OH] | 9.75 | 100% | 9.80 | 100%
